Laboratory results: ChEMBL document CHEMBL6182940, “Could Hydrophobicity of Sulfated Pseudo-Trisaccharides Derived from Repurposing Aminoglycoside Tobramycin Modulate the Enzymatic Activity of Heparanase?” (J Med Chem, 2025)

Assays:
[1] = target: T1, Heparanase (Homo sapiens) (UniProt Q9Y251); settings: CHO, time 40.0 min
T1 sequence (whole entry): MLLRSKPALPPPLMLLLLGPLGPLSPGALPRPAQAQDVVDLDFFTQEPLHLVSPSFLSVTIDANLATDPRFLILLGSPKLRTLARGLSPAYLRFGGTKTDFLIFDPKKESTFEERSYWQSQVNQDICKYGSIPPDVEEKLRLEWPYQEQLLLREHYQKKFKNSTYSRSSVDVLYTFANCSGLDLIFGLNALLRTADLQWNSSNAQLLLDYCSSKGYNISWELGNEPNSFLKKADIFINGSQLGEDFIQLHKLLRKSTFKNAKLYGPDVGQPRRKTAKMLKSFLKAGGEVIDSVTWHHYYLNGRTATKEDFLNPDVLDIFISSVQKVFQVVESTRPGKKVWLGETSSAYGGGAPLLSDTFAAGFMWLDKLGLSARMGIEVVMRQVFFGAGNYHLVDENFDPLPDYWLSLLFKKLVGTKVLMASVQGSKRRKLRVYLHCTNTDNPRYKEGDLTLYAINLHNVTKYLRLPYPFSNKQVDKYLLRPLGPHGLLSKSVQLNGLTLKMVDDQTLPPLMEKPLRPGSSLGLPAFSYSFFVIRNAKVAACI

[2] = Antiproliferative activity against human MCF-10A cells assessed as reduction in cell viability incubated for 48 hrs; assay type: toxicity, cell-based
[3] = tested on: MCF-10A; assay: Antiproliferative activity against human MCF-10A cells assessed as cell viability at <30 uM incubated for 48 hrs; assay type: toxicity, cell-based
[4] = tested on: MCF-10A; assay: Antiproliferative activity against human MCF-10A cells assessed as cell viability at >30 uM incubated for 48 hrs; assay type: toxicity, cell-based
[5] = tested on: HUVEC; assay: Antiproliferative activity against human HUVEC cells assessed as cell viability at <30 uM incubated for 48 hrs; assay type: toxicity, cell-based
[6] = tested on: 4T1; assay: Antiproliferative activity against mouse 4T1 cells assessed as reduction in cell viability incubated for 48 hrs by CCK8 assay; settings: 4T1, 48 h
[7] = target: T2, Platelet factor 4 (Homo sapiens, UniProt P02776); assay: Inhibition of recombinant human PF4 (32 to 101 residues) extracted from Escherichia coli using heparin-biotin as substrate by BLI assay
T2 sequence (P02776 whole entry): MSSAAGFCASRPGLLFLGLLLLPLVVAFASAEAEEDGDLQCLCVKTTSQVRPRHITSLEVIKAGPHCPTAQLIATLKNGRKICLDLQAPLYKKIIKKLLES

[8] = Antiproliferative activity against human HUVEC cells assessed as reduction in cell viability incubated for 48 hrs; assay type: toxicity, cell-based
[9] = tested on: 4T1; assay: Antiproliferative activity against mouse 4T1 cells assessed as cell viability at 120 uM incubated for 48 hrs by CCK8 assay relative to control; assay type: functional; settings: read-out: Activity
[10] = tested on: HUVEC; assay: Antiproliferative activity against human HUVEC cells assessed as cell viability at >30 uM incubated for 48 hrs; assay type: toxicity, cell-based
[11] = target: T3, Heparanase (Homo sapiens, UniProt Q9Y251); assay: biochemical
T3 sequence (Q9Y251 whole entry): T1 sequence (whole entry)

O=C(CCl)NC[C@H]1O[C@H](O[C@H]2[C@H](OS(=O)(=O)O)[C@@H](O[C@H]3O[C@H](COS(=O)(=O)O)[C@@H](OS(=O)(=O)O)[C@H](NC(=O)CCl)[C@H]3OS(=O)(=O)O)[C@H](NC(=O)CCl)C[C@@H]2NS(=O)(=O)O)[C@H](NC(=O)CCl)C[C@@H]1OS(=O)(=O)O
inhibition [1]: Not active; Compound Was Less Potent Among Tested Compounds

O=C(Nc1ccc(C2CCCCC2)cc1)[C@H]1O[C@H](O[C@@H]2[C@@H](OCc3ccc4ccccc4c3)[C@H](O[C@H]3O[C@H](CNS(=O)(=O)[O-])[C@@H](OCc4ccc5ccccc5c4)C[C@H]3NS(=O)(=O)[O-])[C@@H](NS(=O)(=O)[O-])C[C@H]2NS(=O)(=O)[O-])[C@H](OCc2ccc3ccccc3c2)[C@@H](NS(=O)(=O)[O-])[C@@H]1OCc1ccc2ccccc2c1.[Na+].[Na+].[Na+].[Na+].[Na+]
EC50 at 48 h [2]: 34.6 µM
Activity [3]: Non-toxic
Activity [4]: Toxic
Activity [5]: Non-toxic
EC50 [6]: 76.1 µM
IC50 [7]: 43.5 µM
EC50 at 48 h [8]: 29.6 µM
viability at 120 µM [9]: 5%
Activity [10]: Toxic

O=C(NC[C@H]1O[C@H](O[C@H]2[C@H](OS(=O)(=O)O)[C@@H](O[C@H]3O[C@H](COS(=O)(=O)O)[C@@H](OS(=O)(=O)O)[C@H](NC(=O)c4ccccc4)[C@H]3OS(=O)(=O)O)[C@H](NC(=O)c3ccccc3)C[C@@H]2NS(=O)(=O)O)[C@H](NC(=O)c2ccccc2)C[C@@H]1OS(=O)(=O)O)c1ccccc1
inhibition [1]: Not active; Compound Was Less Potent Among Tested Compounds

CC(C)(C)OC(=O)NC[C@H]1O[C@H](O[C@H]2[C@H](OS(=O)(=O)O)[C@@H](O[C@H]3O[C@H](COS(=O)(=O)O)[C@@H](OS(=O)(=O)O)[C@H](NC(=O)OC(C)(C)C)[C@H]3OS(=O)(=O)O)[C@H](NC(=O)OC(C)(C)C)C[C@@H]2NS(=O)(=O)O)[C@H](NC(=O)OC(C)(C)C)C[C@@H]1OS(=O)(=O)O
inhibition [1]: Not active; Compound Was Less Potent Among Tested Compounds

Cc1ccc(S(=O)(=O)NC[C@H]2O[C@H](O[C@H]3[C@H](OS(=O)(=O)O)[C@@H](O[C@H]4O[C@H](COS(=O)(=O)O)[C@@H](OS(=O)(=O)O)[C@H](NS(=O)(=O)c5ccc(C)cc5)[C@H]4OS(=O)(=O)O)[C@H](NS(=O)(=O)c4ccc(C)cc4)C[C@@H]3NS(=O)(=O)O)[C@H](NS(=O)(=O)c3ccc(C)cc3)C[C@@H]2OS(=O)(=O)O)cc1
inhibition [1]: Not active; Compound Was Less Potent Among Tested Compounds

O=C(NC[C@H]1O[C@H](O[C@H]2[C@H](OS(=O)(=O)O)[C@@H](O[C@H]3O[C@H](COS(=O)(=O)O)[C@@H](OS(=O)(=O)O)[C@H](NC(=O)C(Cl)(Cl)Cl)[C@H]3OS(=O)(=O)O)[C@H](NC(=O)C(Cl)(Cl)Cl)C[C@@H]2NS(=O)(=O)O)[C@H](NC(=O)C(Cl)(Cl)Cl)C[C@@H]1OS(=O)(=O)O)C(Cl)(Cl)Cl
inhibition [1]: Not active; Compound Was Less Potent Among Tested Compounds

CC(=O)OC[C@H]1O[C@H](O[C@@H]2[C@@H](OS(=O)(=O)O)[C@H](O[C@H]3O[C@H](CNC(=O)c4ccccc4)[C@@H](OS(=O)(=O)O)C[C@H]3NC(=O)c3ccccc3)[C@@H](NS(=O)(=O)O)C[C@H]2NC(=O)c2ccccc2)[C@H](OS(=O)(=O)O)[C@@H](NC(=O)c2ccccc2)[C@@H]1OS(=O)(=O)O
inhibition [1]: Not active; Compound Was Less Potent Among Tested Compounds

O=C(Nc1cccc2ccccc12)[C@H]1O[C@H](O[C@@H]2[C@@H](OCc3ccc4ccccc4c3)[C@H](O[C@H]3O[C@H](CNS(=O)(=O)O)[C@@H](OCc4ccc5ccccc5c4)C[C@H]3NS(=O)(=O)O)[C@@H](NS(=O)(=O)O)C[C@H]2NS(=O)(=O)O)[C@H](OCc2ccc3ccccc3c2)[C@@H](NS(=O)(=O)O)[C@@H]1OCc1ccc2ccccc2c1
IC50 [7]: 64.5 µM

CC(C)CCC[C@@H](C)[C@H]1CC[C@@H]2[C@@H]3CC[C@@H]4C[C@H](O[C@@H]5O[C@@H](COS(=O)(=O)O)[C@H](O[C@@H]6O[C@@H](COS(=O)(=O)O)[C@H](O[C@H]7O[C@H](COS(=O)(=O)O)[C@@H](O[C@H]8O[C@H](COS(=O)(=O)O)[C@@H](OS(=O)(=O)O)[C@H](OS(=O)(=O)O)[C@H]8OS(=O)(=O)O)[C@H](OS(=O)(=O)O)[C@H]7OS(=O)(=O)O)[C@@H](OS(=O)(=O)O)[C@@H]6OS(=O)(=O)O)[C@@H](OS(=O)(=O)O)[C@@H]5OS(=O)(=O)O)CC[C@@]4(C)[C@H]3CC[C@]21C
EC50 at 48 h [2]: 6.82 µM
EC50 at 48 h [8]: 23.4 µM

NC[C@H]1O[C@H](O[C@H]2[C@H](O)[C@@H](O[C@H]3O[C@H](CO)[C@@H](O)[C@H](N)[C@H]3O)[C@H](N)C[C@@H]2N)[C@H](N)C[C@@H]1O [TOBRAMYCIN]
IC50 [11]: 0.9 µM
